# Legend:
# Type in all cases: cell-based
# [1] = target: T1, Alkaline phosphatase, tissue-nonspecific isozyme (Homo sapiens, UniProt P05186); test: Inhibition of human TNAP expressed in COS7 cells preincubated for 5 to 7 mins followed by CDP-star substrate addition measured after 15 to 20 mins by luminescence assay
# T1 sequence (P05186 whole entry): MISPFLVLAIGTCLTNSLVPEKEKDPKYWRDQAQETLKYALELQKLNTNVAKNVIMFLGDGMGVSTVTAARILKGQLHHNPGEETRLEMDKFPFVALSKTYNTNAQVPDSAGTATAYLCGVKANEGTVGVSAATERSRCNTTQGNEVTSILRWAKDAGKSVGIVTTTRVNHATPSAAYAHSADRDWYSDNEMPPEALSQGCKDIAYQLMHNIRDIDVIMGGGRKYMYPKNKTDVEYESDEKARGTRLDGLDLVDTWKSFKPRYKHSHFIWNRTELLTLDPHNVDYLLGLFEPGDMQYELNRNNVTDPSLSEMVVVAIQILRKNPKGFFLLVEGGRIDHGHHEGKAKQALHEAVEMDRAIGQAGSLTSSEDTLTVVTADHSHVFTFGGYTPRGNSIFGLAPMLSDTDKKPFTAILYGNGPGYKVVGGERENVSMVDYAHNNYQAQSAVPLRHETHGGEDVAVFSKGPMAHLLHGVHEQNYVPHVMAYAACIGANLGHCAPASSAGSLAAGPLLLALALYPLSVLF
# [2] = target: Intestinal-type alkaline phosphatase (Homo sapiens, UniProt P09923); test: Inhibition of human IAP expressed in COS7 cells preincubated for 5 to 7 mins followed by CDP-star substrate addition measured after 15 to 20 mins by luminescence assay
# Sequence of Intestinal-type alkaline phosphatase (P09923 whole entry): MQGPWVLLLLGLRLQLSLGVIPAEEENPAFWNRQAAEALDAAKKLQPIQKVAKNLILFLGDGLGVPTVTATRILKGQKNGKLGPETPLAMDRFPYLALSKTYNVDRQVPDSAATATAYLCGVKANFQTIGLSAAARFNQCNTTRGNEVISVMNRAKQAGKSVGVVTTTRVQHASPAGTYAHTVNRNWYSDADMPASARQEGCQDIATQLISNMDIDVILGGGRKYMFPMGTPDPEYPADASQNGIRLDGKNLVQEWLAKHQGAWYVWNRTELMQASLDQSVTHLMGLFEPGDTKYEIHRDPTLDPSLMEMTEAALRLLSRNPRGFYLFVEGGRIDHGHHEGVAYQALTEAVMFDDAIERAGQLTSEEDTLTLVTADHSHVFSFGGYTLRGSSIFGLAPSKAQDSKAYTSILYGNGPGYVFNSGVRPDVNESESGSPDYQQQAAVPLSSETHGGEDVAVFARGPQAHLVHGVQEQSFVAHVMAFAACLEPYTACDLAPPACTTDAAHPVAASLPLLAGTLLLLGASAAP
# Homo sapiens = organism: Homo sapiens; test: Selectivity ratio of IC50 for human IAP expressed in COS7 cells to IC50 for human TNAP expressed in COS7 cells
SMILES,IC50 [1],IC50 [2],Ratio IC50 (Homo sapiens)
CC(C)c1ccc(Nc2nn3c(=O)cc(C(F)(F)F)nc3s2)cc1,1.98 µM,31.5 µM,
Cc1cc(C)cc(-c2nn3c(=O)cc(C(F)(F)F)nc3s2)c1,0.52 µM,0.46 µM,
O=c1cc(C(F)(F)F)nc2sc(-c3cccc([N+](=O)[O-])c3)nn12,0.62 µM,0.48 µM,
CN(C)CCNc1nn2c(=O)cc(C(F)(F)F)nc2s1,0.45 µM,3.75 µM,
Nc1ccc(Nc2nn3c(=O)cc(C(F)(F)F)nc3s2)cc1,0.33 µM,0.71 µM,
CN(N)c1nn2c(=O)cc(C(F)(F)F)nc2s1,2.02 µM,2.22 µM,
O=c1cc(C(F)(F)F)nc2sc(-c3cccc(C(F)(F)F)c3)nn12,0.52 µM,0.68 µM,
O=c1cc(C(F)(F)F)nc2sc(-c3cccc(-c4ccccc4)c3)nn12,1.12 µM,1.67 µM,
CCCCN(CCCC)c1nn2c(=O)cc(C(F)(F)F)nc2s1,1.53 µM,4.63 µM,
N[C@@H](Cc1ccccc1)C(=O)O [PHENYLALANINE],,80.2 µM,
CCCNc1nn2c(=O)cc(C(F)(F)F)nc2s1,1.44 µM,0.31 µM,
Cc1ccc(-c2nn3c(=O)cc(C(F)(F)F)nc3s2)cc1C,0.54 µM,1.75 µM,
COc1cc(OC)cc(-c2nn3c(=O)cc(C(F)(F)F)nc3s2)c1,1.15 µM,0.76 µM,
C=CCNc1nn2c(=O)cc(C(F)(F)F)nc2s1,0.29 µM,0.89 µM,3
CCCCCNc1nn2c(=O)cc(C(F)(F)F)nc2s1,0.61 µM,0.76 µM,
COc1cccc(Nc2nn3c(=O)cc(C(F)(F)F)nc3s2)c1,0.38 µM,0.44 µM,
CCCCNc1nn2c(=O)cc(C(F)(F)F)nc2s1,0.88 µM,0.71 µM,
O=c1cc(C(F)(F)F)nc2sc(-c3ccc(OC(F)(F)F)cc3)nn12,> 100 µM,0.24 µM,

# More lines, main results first:
IC50 [1],IC50 [2],SMILES,Ratio IC50 (Homo sapiens)
> 100 µM,4.55 µM,CCc1ccc(-c2nn3c(=O)cc(C(F)(F)F)nc3s2)cc1,
0.93 µM,0.79 µM,CCOc1ccc(-c2nn3c(=O)cc(C(F)(F)F)nc3s2)cc1,
> 100 µM,> 100 µM,O=c1cc(C(F)(F)F)nc2sc(-c3ccccc3F)nn12,
4.52 µM,> 100 µM,CCOc1ccccc1-c1nn2c(=O)cc(C(F)(F)F)nc2s1,
0.28 µM,0.48 µM,COc1ccc(-c2nn3c(=O)cc(C(F)(F)F)nc3s2)cc1,
1.58 µM,2.02 µM,CCOc1ccc(Nc2nn3c(=O)cc(C(F)(F)F)nc3s2)cc1,
0.56 µM,1.12 µM,N#Cc1cccc(-c2nn3c(=O)cc(C(F)(F)F)nc3s2)c1,
1.06 µM,0.36 µM,Cc1ccc(-c2nn3c(=O)cc(C(F)(F)F)nc3s2)cc1,
0.21 µM,0.43 µM,O=c1cc(C(F)(F)F)nc2sc(-c3ccccc3)nn12,
3.48 µM,> 100 µM,COc1ccccc1-c1nn2c(=O)cc(C(F)(F)F)nc2s1,
1.39 µM,0.74 µM,O=c1cc(C(F)(F)F)nc2sc(-c3cccc(F)c3)nn12,

# Source: ChEMBL document CHEMBL4251605, “2-Substituted 7-trifluoromethyl-thiadiazolopyrimidones as alkaline phosphatase inhibitors. Synthesis, structure activity relationship and molecular docking study” (Eur J Med Chem, 2018)
